This is an account of results in the supplement of paper PMC11061612.

Each structure is given as a SMILES string.

What all share (assay): combination Emax (second highest fraction inhibited in the dose matrix, 72 h); higher = more inhibition; extreme values may be limits of the assay
Assay [1] deals with GP5d (Colorectal Carcinoma). The procedure, abridged:
(§1)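 Cell lines grown in DMEM/F12 or RPMI with 10% FBS were plated in 1536-well plates and held 24 hours at 37°C, 5% CO2 before 72 hours of exposure to two-drug dose matrices, with DMSO typically at 0.2%. CellTiter-Glo 2.0 luminescence gave viability, which was converted to inhibition. Vehicle wells were set to 0 and blank wells to 1. Combination Emax is the second-highest inhibition in the matrix, and Bliss excess is the observed combination effect minus the expected EA + EB − EA·EB, where EA and EB are the single-agent effects.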

For assay [2], the system named is HCT-15 (Colorectal Carcinoma). The procedure, abridged: as §1
Assay [3] concerns HEC-1 (Endometrial Carcinoma). The procedure, abridged:
as §1

For the next assay, the system named is IST-MES1 (Mesothelioma). The procedure, abridged: as §1
The subject of assay [4] is LK-2 (Squamous Cell Lung Carcinoma). The procedure, abridged:
as §1

The subject of assay [5] is LXF-289 (Lung Adenocarcinoma). The procedure, abridged: as §1
In assay [6] the test system is MKN45 (Gastric Carcinoma). The procedure, abridged: as §1
Assay [7] relates to NCI-H446 (Small Cell Lung Carcinoma). The method in brief:
as §1

The test system of assay [8] is OAW-42 (Ovarian Carcinoma). The procedure, abridged:
as §1

Assay [9] has as its system OPM-2 (Plasma Cell Myeloma). The procedure, abridged: as §1
Assay [10] deals with OVMIU (Ovarian Carcinoma). The procedure, abridged: as §1
In assay [11] the test system is PANC-03-27 (Pancreatic Carcinoma). The method in brief:
as §1

In assay [12] the test system is PSN1 (Pancreatic Carcinoma). The method in brief:
as §1

Assay [13] concerns RCM-1 (Colorectal Carcinoma). The method in brief:
as §1

Assay [14] has as its system RKN (Other Solid Carcinomas). The procedure, abridged:
as §1

Another assay relates to SF539 (Glioblastoma). The procedure, abridged: as §1
For assay [15], the system named is SHP-77 (Small Cell Lung Carcinoma). The procedure, abridged: as §1
In assay [16] the test system is SK-PN-DW (Other Solid Carcinomas). The method in brief:
as §1

Assay [17] concerns VAL (B-Cell Non-Hodgkin's Lymphoma). The method in brief: as §1
Another assay has as its system WM793B (Melanoma). The procedure, abridged: as §1

With `C[C@@H](c1ccc2nccn2c1)n1nnc2ncc(-c3cnn(C)c3)nc21` [Savolitinib] + CC1(C)CCC(CN2CCN(c3ccc(C(=O)NS(=O)(=O)c4ccc(NCC5CCOCC5)c([N+](=O)[O-])c4)c(Oc4cnc5[nH]ccc5c4)c3)CC2)=C(c2ccc(Cl)cc2)C1 [Venetoclax] (first compound max 1 µM, 7x7, partner max 1 µM), the “combination Emax” value turned out to be 0.141 in [1]; 0.12 in assay [2]; 0.133 in [3]; 0.198 with IST-MES1 (Mesothelioma); 0.165 in assay [4]; 0.16 in [5]. Besides, the “combination Emax” value in [6] was 0.831; in assay [7] it was 0.277; in assay [8], 0.188; in [9] it was 0.246; in assay [10], 0.284; in assay [11] it was 0.167. For the same compound, the “combination Emax” value in [12] is 0.12; in assay [13], 0.121; in [14], 0.195; with SF539 (Glioblastoma) it was 0.161; in [15], 0.314; in [16], 0.221. Moreover, the results for the “combination Emax” value (in assay [17]; in the assay with WM793B (Melanoma)) were 0.963 and 0.137, respectively.

As to `C[C@@H](c1ccc2nccn2c1)n1nnc2ncc(-c3cnn(C)c3)nc21` [Savolitinib] + Cc1c2c(nn1C)CSCc1cc(n(C)n1)CSc1cc(c3ccccc3c1)OCCCc1c(C(=O)O)n(C)c3c-2c(Cl)ccc13 [AZD5991] (first compound max 1 µM, 7x7, partner max 1 µM), the “combination Emax” value in assay [1] is 0.861; in assay [2] it was 0.152; in assay [3], 0.107; in the assay on IST-MES1 (Mesothelioma), 0.189; in assay [4], 0.202; in [5] it was 0.306. The “combination Emax” value is 0.839 in [6]; 0.597 in [7]; 0.21 in [8]; 1 in assay [9]; 0.114 in assay [10]; 0.0558 in [11]. Moreover, the “combination Emax” value is 0.174 in [12]; 0.114 in [13]; 0.117 in assay [14]; 0.21 in the assay with SF539 (Glioblastoma); 0.34 in assay [15]; 0.766 in [16]. In addition, the “combination Emax” value was 0.564 in assay [17] and 0.168 in the assay with WM793B (Melanoma).

For the compound `Cn1cnc2c(F)c(Nc3ccc(Br)cc3Cl)c(C(=O)NOCCO)cc21` [Selumetinib] + C=CCn1c(=O)c2cnc(Nc3ccc(N4CCN(C)CC4)cc3)nc2n1-c1cccc(C(C)(C)O)n1 [AZD1775] (first compound max 10 µM, partner max 1 µM), the “combination Emax” value in assay [1] was found to be 0.888; in [2], 0.712; in assay [3], 0.157; in the assay on IST-MES1 (Mesothelioma) it was 0.189; in assay [4] it was 0.931; in assay [5] it was 0.514. The “combination Emax” value in assay [6] came out at 0.8; in assay [7] it was 0.925; in [8] it was 0.513; in assay [9], 0.834; in assay [10] it was 0.498; in assay [11], 0.815. The “combination Emax” value in [12] stood at 0.736; in assay [13], 0.637; in assay [14] it was 0.42; with SF539 (Glioblastoma), 0.972; in assay [15], 0.35; in assay [16] it was 0.798. Besides, the “combination Emax” value was found to be 0.732 in [17] and 0.534 with WM793B (Melanoma).

Take `Cn1cnc2c(F)c(Nc3ccc(Br)cc3Cl)c(C(=O)NOCCO)cc21` [Selumetinib] + CC(C)n1c(=O)n(C)c2cnc3cc(F)c(-c4ccc(OCCCN5CCCCC5)nc4)cc3c21 [AZD1390] (first compound max 10 µM, 7x7, partner max 0.3 µM): the “combination Emax” value stood at 0.683 in assay [1]; 0.155 in assay [2]; 0.0424 in assay [3]; 0.183 in the assay with IST-MES1 (Mesothelioma); 0.49 in [4]; 0.146 in assay [5]. Besides, the “combination Emax” value amounted to 0.61 in assay [6]; 0.262 in assay [7]; 0.192 in assay [8]; 0.192 in assay [9]; 0.402 in assay [10]; 0.42 in assay [11]. Further, the “combination Emax” value in assay [12] came to 0.738; in [13], 0.616; in assay [14] it was 0.379; in the assay on SF539 (Glioblastoma), 0.359; in assay [15], 0.15; in assay [16] it was 0.139. The “combination Emax” value in [17] was found to be 0.0806; with WM793B (Melanoma) it was 0.503.

`Cn1cnc2c(F)c(Nc3ccc(Br)cc3Cl)c(C(=O)NOCCO)cc21` [Selumetinib] + CCN(CCO)CCCOc1ccc2c(Nc3cc(CC(=O)Nc4cccc(F)c4)[nH]n3)ncnc2c1 [AZD2811] (first compound max 10 µM, 7x7, partner max 1 µM): the “combination Emax” value in [1] was found to be 0.842; in [2], 0.28; in [3], 0.0639; with IST-MES1 (Mesothelioma), 0.269; in assay [4], 0.795; in [5], 0.514. Further, the “combination Emax” value in assay [6] was 0.674; in assay [7], 0.91; in assay [8], 0.194; in assay [9], 0.356; in assay [10], 0.407; in assay [11] it was 0.534. The “combination Emax” value in [12] was determined as 0.708; in assay [13], 0.656; in [14], 0.352; in the assay on SF539 (Glioblastoma), 0.501; in assay [15], 0.362; in assay [16], 0.572. Moreover, the “combination Emax” value in assay [17] came to 0.678; in the assay on WM793B (Melanoma) it was 0.528.

For the compound `Cn1cnc2c(F)c(Nc3ccc(Br)cc3Cl)c(C(=O)NOCCO)cc21` [Selumetinib] + C[C@@H]1COCCN1C2=NC(=NC(=C2)C3(CC3)[S@](=N)(=O)C)C4=C5C=CNC5=NC=C4 [AZD6738] (first compound max 10 µM, 7x7, partner max 10 µM), the “combination Emax” value in assay [1] was 0.861; in assay [2], 0.753; in [3], 0.298; with IST-MES1 (Mesothelioma), 0.269; in [4] it was 0.39; in assay [5], 0.591. Further, the “combination Emax” value is 0.782 in assay [6]; 0.85 in [7]; 0.507 in [8]; 0.847 in assay [9]; 0.476 in [10]; 0.599 in [11]. In addition, the “combination Emax” value in assay [12] was 0.736; in assay [13] it was 0.656; in [14], 0.45; in the assay on SF539 (Glioblastoma) it was 0.855; in assay [15], 0.569; in assay [16], 0.915. For the same compound, the “combination Emax” value in [17] worked out at 0.746; with WM793B (Melanoma), 0.703.
